Data as given in patent US20240009359A1, “DRUG ELUTING ELASTIC BANDS AND LIGATION” (MEMORIAL SLOAN KETTERING CANCER CENTER, priority 2020, published 2024).
“Also recorded” adds a separate entry of the source.

Key:
[1] = Drug release from rubber bands in physiological medium; type: physicochemical; details: pH 7.9, 37 degrees Celsius; for Drug release from rubber band: released drug measured over time
Description: To see whether the lidocaine loaded within the rubber is dispersed evenly, a larger lidocaine loaded rubber slab was prepared and cut into pieces from either the middle or the edges of the slab. The amount of drug released was measured (see FIG. 9K) and normalized to the amount of rubber (see FIG. 9L).

[2] = tested on: HL-1 cardiomyocytes; assay: Calcium imaging of HL-1 cardiomyocytes exposed to lidocaine released from rubber bands; type: cell-based; details: HL-1 cardiomyocytes before and after exposure to released lidocaine
Description: In accordance with various potential embodiments, and with reference to FIGS. 11A-11C, the released lidocaine was tested on cardiomyocytes. Lidocaine is known to have a cardiotoxic effect in high concentrations, and accordingly, HL-1 cardiomyocytes beating on a plate were imaged using calcium imaging before and after exposure to the released lidocaine (FIG. 11A).

[3] = tested on: MCF-7 cells; assay: Activity of salicylic acid released from rubber on MCF-7 cell viability; type: cell-based; details: drug loaded in rubber and released into the media in presence of MCF-7 cells
Excerpt: In order to verify that the released drugs are still active after elution from the rubber, salicylic acid was loaded and released into the media in the presence of MCF-7 cells.

Row | Drug release from rubber band [1] | Compound | further results
1 | released | Cc1cc(C2CCCCC2)n(O)c(=O)c1 [ciclopirox olamine] | 
2 | released | CN(C)CCOC(c1ccccc1)c1ccccc1.Cn1c(=O)c2[nH]c(Cl)nc2n(C)c1=O [dimenhydrinate] | 
3 | released | O=C(O)c1ccccc1O [salicylic acid] | Cell viability compared to untreated cells [3]: effective in reducing cell viability
4 | released | OB1OCc2cc(F)ccc21 [tavabarole] | 

Further lines, the compound ahead of its results:

Row | Compound | Drug release from rubber band [1] | further results
5 | CCCCN1CCCCC1C(=O)Nc1c(C)cccc1C (centres unmarked) [bupivacaine] | released | 
6 | COC1=CC(=O)C[C@@H](C)[C@]12Oc1c(Cl)c(OC)cc(OC)c1C2=O [griseofulvin] | released | 
7 | CCN(CC)CC(=O)Nc1c(C)cccc1C [lidocaine] |  | Time at which release peaked ([1]; different loading quantities): ~5 days; Calcium activity (calcium waves, fluorescence pattern) [2]: inhibit spontaneous calcium waves; also recorded: much lower level of calcium activity; Rate of contraction [2]: rate of contraction dropped
8 | CN1C(C(=O)Nc2ccccn2)=C(O)c2ccccc2S1(=O)=O [piroxicam] | released | 
